# Columns and labels:
# [1] = tested on: phosphorylated p42 and p44 MAPK in neonatal rat ventricular myocytes (NRVM); assay: p42/44 MAPK activation in NRVM (Western blot); type: cell-based
# Method: PC12 cells originated from rat pheochromocytoma purchased from ATCC, were grown to confluence in T75 flasks, containing DMEM (1000 mg/l glucose) and supplemented with 5% fetal calf serum (FCS), 10% horse serum, and a mixture of 1% of penicillin/streptomycin/nystatin [11]. NRVM cultures were prepared from ventricles of 1–2 day old Sprague-Dawley rats, as previously described (ethics number Il-106-11-2007). […]
# (§1) Phosphorylation of MAPK was analyzed in cell lysates and the loading of the lanes normalized to levels of non-phospho MAPK.
# PC12 cells or NRVM cultures were resuspended in RIPA (20 mM Tris–HCl pH 7.4, 200 mM NaCl, 1% Triton-X 100, 0.1% SDS, 0.2% sodium deoxycholate, 5 mM EDTA) containing cocktail protease inhibitors (Roche, Basel Switzerland). […] Protein content was determined using the Bradford method (Sigma Chemical Co. St. Louis, MO, USA).Equal amounts of sample were resolved on sodium dodecyl sulfate-polyacrylamide gel electrophoresis (SDS-PAGE) and blotted onto polyvinylidenedifluoride membranes (Millipore, Billerica, MA, USA). […] Quantification of the results was accomplished by measuring the optical density of the labeled bands from the autoradiograms, using the computerized imaging program Bio-1D (VilberLourmat Biotech. Bioprof., France). […]
# [2] = tested on: phosphorylated p42 and p44 MAPK in PC12 cells; assay: p42/44 MAPK activation in PC12 cells (Western blot); type: cell-based, rat
# Method: as §1
# (§2) PC12 cells originated from rat pheochromocytoma purchased from ATCC, were grown to confluence in T75 flasks, containing DMEM (1000 mg/l glucose) and supplemented with 5% fetal calf serum (FCS), 10% horse serum, and a mixture of 1% of penicillin/streptomycin/nystatin [11]. NRVM cultures were prepared from ventricles of 1–2 day old Sprague-Dawley rats, as previously described (ethics number Il-106-11-2007). Briefly, the ventricles of the excised hearts were dissociated with 0.1% RDB, a protease isolated from fig tree extract (Institute of Biology, Nes-Ziona,Israel), and the dispersed cells were resuspended in F-10 culture medium containing 1 mM CaCl2, 100 U/mL penicillin-streptomycin, 5% FCS, 5% donor horse serum, and 25 mg of bromodeoxyuridine (5-bromo-2′-deoxyuridine, BrdU).Cell cultures were incubated at 37°C in a humid 5% CO2-95% air environment. For all experiments, cells were initially seeded in full-serum cultured media and then replaced into serum-free media containing the respective supplements.
# PC12 cells or NRVM cultures were resuspended in RIPA (20 mM Tris–HCl pH 7.4, 200 mM NaCl, 1% Triton-X 100, 0.1% SDS, 0.2% sodium deoxycholate, 5 mM EDTA) containing cocktail protease inhibitors (Roche, Basel Switzerland). The lysates were precleared by centrifugation. Protein content was determined using the Bradford method (Sigma Chemical Co. St. Louis, MO, USA).Equal amounts of sample were resolved on sodium dodecyl sulfate-polyacrylamide gel electrophoresis (SDS-PAGE) and blotted onto polyvinylidenedifluoride membranes (Millipore, Billerica, MA, USA). Membranes were treated with blocking buffer (5% dry milk, 0.05% Tween 20 in TBS). Primary antibodies were diluted in the blocking buffer and incubated with membranes for 20 h at 4°C followed by incubation (1 h at room temperature) in dilutions of horseradish peroxidase-conjugated secondary antibodies in the same buffer. Following antibody incubations, membranes were washed in 0.5% Tween 20 TBS. Detection was achieved using Western blotting ECL reagent (Amersham, Pharmacia, Little Chalfort Buckinghamshire, UK). Quantification of the results was accomplished by measuring the optical density of the labeled bands from the autoradiograms, using the computerized imaging program Bio-1D (VilberLourmat Biotech. Bioprof., France). The values were normalized to β-actin intensity levels.
# [3] = tested on: neonatal rat ventricular myocytes (NRVM); assay: Serum deprivation-induced apoptosis in NRVM (TUNEL); type: cell-based; settings: serum free medium, efaroxan 10 µM pre-incubation, TVP1022 20 µM
# Method: as §2, with “For all experiments, cells were initially seeded in full-serum cultured media and then replaced into serum-free media containing the respective supplements.” left out
# In situ DNA fragmentation was performed by the terminal deoxynucleotidyl transferase-mediated deoxyuridine triphosphate-digoxigenin nick end labeling (TUNEL). […] Quantification of the apoptotic cells was calculated as the ratio of TUNEL-positive cells to the total number of cells in the same slide.
# NRVM cells were incubated in full serum medium for 24 h before replacing to serum free medium. […] B. Representative Western blots and quantitative results of cleaved caspase 3 protein expression. […]
# [4] = tested on: cleaved caspase 3 in NRVM; assay: Cleaved caspase 3 in serum-deprived NRVM (Western blot); type: cell-based, rat; settings: serum free medium, efaroxan 10 µM, TVP1022 20 µM
# Method: NRVM cells were incubated in full serum medium for 24 h before replacing to serum free medium. […] A. Apoptotic nuclei were identified by TUNEL analysis. […] B. Representative Western blots and quantitative results of cleaved caspase 3 protein expression. The loading of the lanes was normalized to β-actin levels.
# PC12 cells or NRVM cultures were resuspended in RIPA (20 mM Tris–HCl pH 7.4, 200 mM NaCl, 1% Triton-X 100, 0.1% SDS, 0.2% sodium deoxycholate, 5 mM EDTA) containing cocktail protease inhibitors (Roche, Basel Switzerland). The lysates were precleared by centrifugation. Protein content was determined using the Bradford method (Sigma Chemical Co. St. Louis, MO, USA).Equal amounts of sample were resolved on sodium dodecyl sulfate-polyacrylamide gel electrophoresis (SDS-PAGE) and blotted onto polyvinylidenedifluoride membranes (Millipore, Billerica, MA, USA). Membranes were treated with blocking buffer (5% dry milk, 0.05% Tween 20 in TBS). […] Quantification of the results was accomplished by measuring the optical density of the labeled bands from the autoradiograms, using the computerized imaging program Bio-1D (VilberLourmat Biotech. Bioprof., France). […]
# [5] = target: I2 imidazoline receptor; assay: I2 imidazoline receptor binding assay ([3H]idazoxan); settings: [3H]idazoxan 2 nM, rat cerebral cortex
# Text: (§3) The specific ligand binding to the receptors is defined as the difference between the total binding and the nonspecific binding determined in the presence of an excess of unlabelled ligand, as described in Table 1.
# (§4) The specific ligand binding to the receptors is defined as the difference between the total binding and the nonspecific binding determined in the presence of an excess of unlabelled ligand (Table 1). The IC50 values (concentration causing a half-maximal inhibition of control specific binding) and Hill coefficients (nH) were determined by non-linear regression analysis of the competition curves generated with mean replicate values using Hill equation curve fitting [Y = D+((A – D)/(1+(C/C50) nH)], where Y = specific binding, D = minimum specific binding, A = maximum specific binding, C = compound concentration, C50 = IC50, and nH = slope factor). This analysis was performed using SigmaPlot ® 4.0 for Windows ® (© 1997 by SPSS Inc.). The inhibition constants (Ki) were calculated using the Cheng Prusoffequation [Ki = IC50/(1+(L/KD)], where L = concentration of radioligand in the assay, and KD = affinity of the radioligand for the receptor).
# [6] = target: I1 imidazoline receptor; assay: I1 imidazoline receptor binding assay ([3H]clonidine); settings: [3H]clonidine 15 nM, bovine adrenal medulla glands
# Text: as §3, §4
structure (smiles),measurement,setting,value
COc1cccc(-c2cc(=O)c3ccccc3o2)c1N [PD98059],effect on TVP1022-induced ERK phosphorylation,[1]; PD98059 30 µM pre-incubation 30 min,abolished
same,effect on TVP1022-induced increase of MAPK phosphorylation,"[2]; PD98059 30 µM pretreatment 30 min, TVP1022 20 µM",significantly blocked
CCC1(C2=NCCN2)Cc2ccccc2O1 (stereo not drawn) [efaroxan],effect on TVP1022-mediated increases in p42 and p44 MAPK phosphorylation,"[1]; efaroxan 10 µM pre-incubation, TVP1022 10 and 20 µM",antagonized
same,effect on TVP1022-induced cytoprotective effect (TUNEL),[3],markedly prevented
same,effect on TVP1022-induced MAPK activation,"[2]; efaroxan 10 µM pre-incubation 30 min, TVP1022 20 µM",abolished
same,effect on moxonidine-induced phosphorylation of p42 and p44 MAPK,"[2]; efaroxan 10 µM pre-incubation, moxonidine 1 µM",abolished
same,effect on TVP1022-suppressive effects on caspase 3,[4],markedly reversed
"c1ccc2c(c1)OCC(C1=NCCN1)O2 (stereo not drawn) [idazoxan, reference compound]",IC50,[5]; 30 min 22°C,16 nM
same,Ki,[5]; Cheng Prusoff equation,10 nM
"COc1nc(C)nc(Cl)c1N=C1NCCN1 [monoxidine, moxonidine]",effect on phosphorylation of p42 and p44 MAPK,"[2]; 1 µM, 30 min",increased
"C1COC(NC(C2CC2)C2CC2)=N1 [rilmenidine, reference compound]",IC50,[6]; 60 min 22°C,160 nM
same,Ki,[6]; Cheng Prusoff equation,84 nM

# From PMC3499525 (PLoS ONE, 2012)
